Patent US7803793B2, “Heterocyclic derived metalloprotease inhibitors” (Janssen Pharmaceutica NV, priority 2006, dated 2010)
Like-named read-outs stand apart in the source and are kept apart here.

Columns and labels:
MMP-2 = molecular target: T1, MMP-2 (Homo sapiens, UniProt P08253); assay: MMP enzymatic assay (Trupoint peptide), MMP-2; type: biochemical
T1 construct: Human MMP-2 full length (aa 1-660)
T1 sequence (P08253 30-660): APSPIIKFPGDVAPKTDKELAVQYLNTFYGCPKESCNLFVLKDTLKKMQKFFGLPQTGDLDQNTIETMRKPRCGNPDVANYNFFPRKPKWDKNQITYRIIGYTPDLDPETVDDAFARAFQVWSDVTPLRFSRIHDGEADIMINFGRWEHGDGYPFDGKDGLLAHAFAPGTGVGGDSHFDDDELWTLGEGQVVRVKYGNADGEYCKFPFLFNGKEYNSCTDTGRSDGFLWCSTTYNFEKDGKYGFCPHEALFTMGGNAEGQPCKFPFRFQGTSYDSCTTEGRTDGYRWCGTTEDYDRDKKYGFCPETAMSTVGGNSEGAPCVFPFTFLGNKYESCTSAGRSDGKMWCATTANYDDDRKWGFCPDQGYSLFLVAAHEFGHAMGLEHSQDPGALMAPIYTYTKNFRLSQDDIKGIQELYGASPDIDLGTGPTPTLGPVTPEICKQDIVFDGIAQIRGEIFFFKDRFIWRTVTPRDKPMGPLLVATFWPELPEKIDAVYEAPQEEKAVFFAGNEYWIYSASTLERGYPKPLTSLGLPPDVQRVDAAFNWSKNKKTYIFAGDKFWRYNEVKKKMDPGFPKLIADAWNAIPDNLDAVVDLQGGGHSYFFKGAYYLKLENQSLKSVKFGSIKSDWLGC
Protocol: [formula] • 1) Prepare appropriate 1×MMP assay buffer from 10× stock. […] Need to prepare a 2.5× concentration stock (2.5 μM) to achieve this concentration in 50 μl. Dilute compound to 2.5 mM in 100% DMSO (a 1:40 dilution), then dilute the 2.5 mM compound to 2.5 μM (1:1000) into 1× assay buffer. Make 1 ml 2.5 μM compound in assay buffer. • 4) Fill the rows B through P of a 384-well plate with assay buffer+0.1% DMSO. • 5) Add 30 ul of the 2.5 μM compound in assay buffer to the top row of the plate, doing each compound in triplicate. The plate setup should be as follows, using GM6001 as plate reference compound:
• 6) Serially dilute 10 μl down the plate to achieve 1:3 dilutions in subsequent wells. After each dilution, change pipette tips to avoid compound carryover. Discard the remaining 10 μl after diluting into the final row. • 7) Prepare enzyme dilutions at 2.5× of final desired concentration (see below). Will need 10 ml enzyme solution per plate. Add enzyme to plate, 20 μl per well. Incubate 1 hr.
• 8) Dilute the 500 μM Trupoint peptide 1:1000 into assay buffer to achieve a 5× working stock of 500 nM. Prepare 5 ml total per plate. Add 10 ul of substrate to each well to achieve a final concentration of 100 nM in well. Also prepare background subtraction wells by adding 10 μl 5× substrate to 40 μl assay buffer per well, typically do ˜32 wells. • 9) Incubate assay at room temperature for 15 min. Read in plate reader.
(§1) Analysis Specifications • Calculate average background value from substrate/assay buffer wells • Subtract this from entire plate • Calculate average of DMSO wells for each enzyme. This is the positive control, 100% value. • For each well, calculate percent of control by dividing well value by the average DMSO value obtained above. • Paste percent of control values into Graphpad Prism 4.0.

MMP-9 = molecular target: T2, MMP-9 (Homo sapiens, UniProt P14780); assay: MMP enzymatic assay (Trupoint peptide), MMP-9; type: biochemical
T2 construct: Human MMP-9 catalytic domain (aa 107-446)
Protocol: [formula] • 1) Prepare appropriate 1×MMP assay buffer from 10× stock. […] The plate setup should be as follows, using GM6001 as plate reference compound:
• 6) Serially dilute 10 μl down the plate to achieve 1:3 dilutions in subsequent wells. After each dilution, change pipette tips to avoid compound carryover. […] Will need 10 ml enzyme solution per plate. Add enzyme to plate, 20 μl per well. Incubate 1 hr.
Prepare 5 ml total per plate. Add 10 ul of substrate to each well to achieve a final concentration of 100 nM in well. […] Read in plate reader.
as §1

T2 sequence (P14780 107-446): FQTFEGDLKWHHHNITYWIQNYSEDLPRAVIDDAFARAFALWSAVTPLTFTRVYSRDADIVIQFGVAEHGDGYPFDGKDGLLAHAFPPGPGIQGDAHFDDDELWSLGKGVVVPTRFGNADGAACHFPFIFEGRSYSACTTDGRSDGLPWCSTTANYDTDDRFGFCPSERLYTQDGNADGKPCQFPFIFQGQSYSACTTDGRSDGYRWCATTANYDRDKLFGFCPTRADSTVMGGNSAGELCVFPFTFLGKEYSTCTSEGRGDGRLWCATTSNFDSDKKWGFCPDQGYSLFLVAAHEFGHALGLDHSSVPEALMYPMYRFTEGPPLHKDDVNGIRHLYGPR

Row | SMILES | IC50 (MMP-2) [nM] | IC50 (MMP-9) [nM] | IC50 (MMP-2; read-out: MMP-2 nM IC50) [nM]
1 | CC1CN(CC2=CC[C@@H](NS(=O)(=O)c3ccc(Oc4ccc(Cl)cc4)cc3)C(=O)N(O)C2)CC(C)O1 (stereo partly drawn) [Compound 21, (R)-4-(4-Chloro-phenoxy)-N-[6-(2,6-dimethyl-morpholin-4-ylmethyl)-1-hydroxy-2-oxo-2,3,4,7-tetrahydro-1H-azepin-3-yl]-benzenesulfonamide] | 1.25 | 0.89 | 
2 | O=c1c(N(Cc2ccccc2)S(=O)(=O)c2ccc(Oc3ccccc3)cc2)cccn1O [Compound 22, N-Benzyl-N-(1-hydroxy-2-oxo-1,2-dihydro-pyridin-3-yl)-4-phenoxy-benzene-sulfonamide] |  | 33.4 | 22.4
3 | O=S(=O)(c1ccc(Oc2ccccc2)cc1)N(Cc1ccccc1)c1cccn(O)c1=S [Compound 23, N-Benzyl-N-(1-hydroxy-2-thioxo-1,2-dihydro-pyridin-3-yl)-4-phenoxy-benzene-sulfonamide] |  | 693 | 4590
4 | CC(C)CN(c1cccn(O)c1=O)S(=O)(=O)c1ccc(Oc2ccccc2)cc1 [Compound 24, N-(1-Hydroxy-2-oxo-1,2-dihydro-pyridin-3-yl)-N-isobutyl-4-phenoxy-benzenesulfonamide] | 41 | 57.5 | 
5 | CN(c1cccn(O)c1=O)S(=O)(=O)c1ccc(Oc2ccccc2)cc1 [Compound 25, N-(1-Hydroxy-2-oxo-1,2-dihydro-pyridin-3-yl)-N-methyl-4-phenoxy-benzene-sulfonamide] | 1.52 | 1.41 | 
6 | COc1ccc(Oc2ccc(S(=O)(=O)N(C)c3cccn(O)c3=O)cc2)cc1 [Compound 29, N-(1-Hydroxy-2-oxo-1,2-dihydro-pyridin-3-yl)-4-(4-methoxy-phenoxy)-N-methyl-benzenesulfonamide] |  | 0.87 | 5.6
7 | Cc1ccc(N(C)S(=O)(=O)c2ccc(Oc3ccc(Cl)cc3)cc2)c(=O)n1O [Compound 33, 4-(4-Chloro-phenoxy)-N-(1-hydroxy-6-methyl-2-oxo-1,2-dihydro-pyridin-3-yl)-N-methyl-benzenesulfonamide] |  | 34.9 | 66.4
8 | Cc1ccc(Oc2ccc(S(=O)(=O)N(CCN3CCOCC3)c3cccn(O)c3=O)cc2)cc1 [Compound 34, N-(1-Hydroxy-2-oxo-1,2-dihydro-pyridin-3-yl)-N-(2-morpholin-4-yl-ethyl)-4-p-tolyloxy-benzenesulfonamide] | 3.5 | 2.41 | 
9 | O=C(CN(c1cccn(O)c1=O)S(=O)(=O)c1ccc(Oc2ccc(Cl)cc2)cc1)N1CCOCC1 [Compound 35, 4-(4-Chloro-phenoxy)-N-(1-hydroxy-2-oxo-1,2-dihydro-pyridin-3-yl)-N-(2-morpholin-4-yl-2-oxo-ethyl)-benzenesulfonamide] |  | 4.84 | 4.93
10 | CN(c1cccn(O)c1=O)S(=O)(=O)c1ccc(-c2ccc(Cl)cc2)cc1 [Compound 36, 4′-Chloro-biphenyl-4-sulfonic acid (1-hydroxy-2-oxo-1,2-dihydro-pyridin-3-yl)-methyl-amide] | 1300 | 1800 | 
11 | O=c1c(NS(=O)(=O)c2ccc(Oc3ccc(Cl)cc3)cc2)cccn1O [Compound 37, 4-(4-Chloro-phenoxy)-N-(1-hydroxy-2-oxo-1,2-dihydro-pyridin-3-yl)-benzene-sulfonamide] |  | 316 | 242
12 | CN(c1cccn(O)c1=O)S(=O)(=O)c1ccc(Oc2ccc(OC(F)(F)F)cc2)cc1 [Compound 39, N-(1-Hydroxy-2-oxo-1,2-dihydro-pyridin-3-yl)-N-methyl-4-(4-trifluoro-methoxy-phenoxy)-benzenesulfonamide] |  | 1.85 | 5.75
13 | O=c1c(NS(=O)(=O)c2ccc(-c3ccc(Cl)cc3)cc2)cccn1O [Compound 40, 4′-Chloro-biphenyl-4-sulfonic acid (1-hydroxy-2-oxo-1,2-dihydro-pyridin-3-yl)-amide] | > 1000 | > 1000 | 
14 | O=c1c(COc2ccc(-c3ccc(Br)cc3)cc2)cccn1O [Compound 41, 3-(4′-Bromo-biphenyl-4-yloxymethyl)-1-hydroxy-1H-pyridin-2-one] | > 10000 | 7140 | 
15 | CCCCc1ccc(N(Cc2cccn(O)c2=O)S(C)(=O)=O)cc1 [Compound 45, N-(4-Butyl-phenyl)-N-(1-hydroxy-2-oxo-1,2-dihydro-pyridin-3-ylmethyl)-methane-sulfonamide] | > 1000 | > 1000 | 
16 | CCCCOc1ccc(N(Cc2cccn(O)c2=O)S(C)(=O)=O)cc1 [Compound 46, N-(4-Butoxy-phenyl)-N-(1-hydroxy-2-oxo-1,2-dihydro-pyridin-3-ylmethyl)-methanesulfonamide] | > 1000 | > 1000 | 

Now from value to molecule:

Row | IC50 (MMP-2) [nM] | IC50 (MMP-9) [nM] | IC50 (MMP-2; read-out: MMP-2 nM IC50) [nM] | SMILES
17 | 6.5 | 3.6 |  | CCN(c1cccn(O)c1=O)S(=O)(=O)c1ccc(Oc2ccc(C)cc2)cc1 [Compound 27, N-Ethyl-N-(1-hydroxy-2-oxo-1,2-dihydro-pyridin-3-yl)-4-p-tolyloxy-benzene-sulfonamide]
18 | 6.9 | 3.28 |  | CN(c1cccn(O)c1=O)S(=O)(=O)c1ccc(Oc2ccc(Cl)cc2)cc1 [Compound 28, 4-(4-Chloro-phenoxy)-N-(1-hydroxy-2-oxo-1,2-dihydro-pyridin-3-yl)-N-methyl-benzenesulfonamide]
19 | 49.8 | 64.6 |  | Cc1ccc(Oc2ccc(S(=O)(=O)Nc3cccn(O)c3=O)cc2)cc1 [Compound 38]
20 | 208 | 46.9 |  | Cc1ccc(Oc2ccc(N(Cc3cccn(O)c3=O)S(C)(=O)=O)cc2)cc1 [Compound 42, N-(1-Hydroxy-2-oxo-1,2-dihydro-pyridin-3-ylmethyl)-N-(4-p-tolyloxy-phenyl)-methanesulfonamide]
21 | 491 | 233 |  | CS(=O)(=O)N(Cc1cccn(O)c1=O)c1ccc(Oc2ccc(C(F)(F)F)cc2)cc1 [Compound 43, N-(1-Hydroxy-2-oxo-1,2-dihydro-pyridin-3-ylmethyl)-N-[4-(4-trifluoromethyl-phenoxy)-phenyl]-methanesulfonamide]
22 | 406 | 126 |  | CS(=O)(=O)N(Cc1cccn(O)c1=O)c1ccc(Oc2ccc(Cl)cc2)cc1 [Compound 44, N-[4-(4-Chloro-phenoxy)-phenyl]-N-(1-hydroxy-2-oxo-1,2-dihydro-pyridin-3-ylmethyl)-methanesulfonamide]
23 | > 1000 | 486 |  | Cc1ccc(Oc2ccc(N(Cc3cccn(O)c3=S)S(C)(=O)=O)cc2)cc1 [Compound 47, N-(1-Hydroxy-2-thioxo-1,2-dihydro-pyridin-3-ylmethyl)-N-(4-p-tolyloxy-phenyl)-methanesulfonamide]
24 | > 1000 | 457 |  | Cc1ccc(Oc2ccc(N(Cc3c(C)ccn(O)c3=O)S(C)(=O)=O)cc2)cc1 [Compound 48, N-(1-Hydroxy-4-methyl-2-oxo-1,2-dihydro-pyridin-3-ylmethyl)-N-(4-p-tolyloxy-phenyl)-methanesulfonamide]
25 | 547 | 116 |  | Cc1ccc(Oc2ccc(N(Cc3cc(Br)cn(O)c3=O)S(C)(=O)=O)cc2)cc1 [Compound 49, N-(5-Bromo-1-hydroxy-2-oxo-1,2-dihydro-pyridin-3-ylmethyl)-N-(4-p-tolyloxy-phenyl)-methanesulfonamide]
